In patent publication US11667645B2, “Granzyme B directed imaging and therapy” (CytoSite Biopharma Inc., priority 2018, dated 2023):
Read-outs that look alike come from different tables or passages of the source.

Columns and labels:
[1] = metabolic stability assay using liver microsomes; format: in vitro ADME; conditions: human liver microsomes, with NRS at 37° C.
Procedure: In addition, compounds of Formula I-VIII described above are also tested in the metabolic stability assay using liver microsomes, as provided below.
Buffer pH7.4: Prepare 1 (M) KH2PO4 and 1 (M) K2HPO4. Titrate 1(M) K2HPO4 with 1 (M) KH2PO4 to obtain pH 7.40. Dilute this buffer 10 fold in Water (30 ml buffer+270 ml of water) to obtain 100 mM phosphate buffer. Adjust pH to 7.40±0.02 using 5(N) HCl or 5(N) NaOH.
NADPH Regeneration System (NRS): Prepare a solution containing 13 mM NADP, 33 mM Glucose-6-phosphate, 33 mM MgCl2 and 4 U/ml Glucose-6-phosphate dehydrogenase in buffer.
Liver Microsome (LM) suspension: Thaw LM vial on ice, then mix 1.0 ml LM (20 mg/ml) with 19 ml buffer [final LM Conc: 1 mg/ml]
LM+NRS suspension: Mix 5.0 ml NRS with 20 ml LM suspension [final LM Conc: 0.8 mg/ml]
System suitability standard: a synthesized compound having Mol wt 686.2 used as System suitability standard. Dissolve this compound in ice-cold acetonitrile to obtain concentration of 0.1 μg/ml and store at 4° C.
Compound Stock: 10 mM in DMSO
Sub stock (100 μM): 4 μl of 10 mM Compound Stock+[…] Acetonitrile
Working plate (2 μM): 10 μl of 100 μM Sub stock+490 μl buffer
Incubate all plastic materials including tips at 37° C. overnight.
Incubate LM suspension and NRS at 37° C. for 15 min before use.
Add 40 μl buffer to the wells of blank plate.
Add 40 μl compound (from working plate) to 0, 5, 10, 20, 30 and 60 min plates.
Initiate reaction by adding 40 μl of LM+NRS suspension in each plate.
Terminate reaction by adding 240 μl ice-cold acetonitrile containing system suitability standard at designated time points. For T=0 add 240 μl ice-cold acetonitrile containing system suitability standard before LM+NRS addition.
Centrifuge (3500 rpm, 20 min and 15° C.) the plates.
Mix 110 μl supernatant with 110 μl water and quantitate amount of Compound in the solution using LC-MS/MS.
For Scaled CLint & Predicted CL use the relevant physiological parameters, as applicable.
Human LM: Corning, Cat #25117
Mouse LM: Xenotech, Cat #M1000
(2) Volumes mentioned in the protocol are representative values and may change depending on number of test compounds.
(3) It is assumed that the compounds are chemically stable in the assay system/buffer.
The metabolic stability assay described above can be performed using different test concentrations, LM Concentrations, or time points.
Certain compounds of this disclosure were tested in the microsomal stability assay provided above.

[2] = target: Granzyme B (human lymphocytes) (Homo sapiens (Human), UniProt P10144); experiment: human Granzyme B biochemical assay
Summary of the method: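 Enzyme (10 nM working stock, assay buffer with 0.1% BSA) pre-incubated with compound for 30 min at 22 °C, then Ac-IETD-AFC (800 µM working stock) added for 60 min at 22 °C in the dark. Fluorescence read at Ex 400/Em 505 nm; 8-point 3.16-fold series (40 µM top working stock); IC50 from % inhibition versus standard-inhibitor and DMSO controls.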

[3] = Granzyme B (human lymphocytes) 5 nM, substrate Ac-IETD-AFC 200 μM, Cpd incubation with enzyme 30 mins, 22° C., read time 60 mins, read-out: IC50
[4] = Granzyme B IC50 as repeated in Table 7, read-out: IC50

Chain of Granzyme B (human lymphocytes) (P10144 21-247): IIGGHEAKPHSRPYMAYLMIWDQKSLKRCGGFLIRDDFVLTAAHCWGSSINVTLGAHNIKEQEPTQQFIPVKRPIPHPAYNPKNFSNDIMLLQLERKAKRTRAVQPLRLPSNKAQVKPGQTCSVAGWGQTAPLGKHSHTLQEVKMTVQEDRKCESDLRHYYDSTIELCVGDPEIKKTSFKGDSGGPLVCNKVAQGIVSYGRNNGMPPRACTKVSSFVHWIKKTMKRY

SMILES	IC50 [2, 3] [nM]	IC50 [2, 4] [nM]	HLM % remaining @ 30 min [1]	IC50 [2] [nM]	IC50 ([2]; Granzyme B IC50 as repeated in Table 7) [nM]
CC[C@H](C)[C@H](NC(=O)CF)C(=O)N[C@H]1COc2cccc3c2N(C1=O)[C@H](C(=O)NCc1c[nH]nn1)C3 [Compound C098, (1S,8S)-8-[(2S,3S)-2-(2-Fluoro-acetylamino)-3-methyl-pentanoylamino]-9-oxo-1,2,8,9-tetrahydra-7H-6-oxa-9a-aza-benzo[cd]azulene-1-carboxylic acid (1H-[1,2,3]triazol-4-ylmethyl)-amide]	–	–	*** (the symbol “***” indicates a remaining percentage of 71-100%)	1 to 300	1 to 300
CC[C@H](C)[C@H](NC(=O)c1ccc(F)nc1)C(=O)N[C@H]1CCc2cccc3c2N(C1=O)[C@H](C(=O)NCc1c[nH]nn1)C3 [Compound C140, (2S,5S)-5-{(2S,3S)-2-[(6-Fluoro-pyridine-3-carbonyl)-amino]-3-methyl-pentanoylamino}-4-oxo-1,2,4,5,6,7-hexahydro-azepino[3,2,1-hi]indole-2-carboxylic acid (1H-[1,2,3]triazol-4-ylmethyl)-amide]	1 to 300	1 to 300	*** (the symbol “***” indicates a remaining percentage of 71-100%)	–	–
CC[C@H](C)[C@H](NC(=O)c1ccnc(F)c1)C(=O)N[C@H]1CCc2cccc3c2N(C1=O)[C@H](C(=O)NCc1c[nH]nn1)C3 [Compound C141, (2S,5S)-5-{(2S,3S)-2-[(2-Fluoro-pyridine-4-carbonyl)-amino]-3-methyl-pentanoylamino}4-oxo-1,2,4,5,6,7-hexahydro-azepino[3,2,1-hi]indole-2-carboxylic acid (1H-[1,2,3]triazol-4-ylmethyl)-amide]	1 to 300	1 to 300	*** (the symbol “***” indicates a remaining percentage of 71-100%)	–	–

More lines, main results first:

IC50 [2, 3] [nM]	IC50 [2, 4] [nM]	SMILES	HLM % remaining @ 30 min [1]	IC50 [2] [nM]	IC50 ([2]; Granzyme B IC50 as repeated in Table 7) [nM]
1 to 300	1 to 300	CC[C@H](C)[C@H](NC(C)=O)C(=O)N[C@H]1COc2cccc3c2N(C1=O)[C@H](C(=O)NCc1c[nH]nn1)C3 [Compound C097, (1S,8S)-8-((2S,3S)-2-Acetylamino-3-methyl-pentanoylamino)-9-oxo-1,2,8,9-tetrahydro-7H-6-oxa-9a-aza-benzo[cd]azulene-1-carboxylic acid (1H-[1,2,3]triazol-4-ylmethyl)-amide]	*** (the symbol “***” indicates a remaining percentage of 71-100%)	–	–
1 to 300	1 to 300	CC[C@H](C)[C@H](NC(=O)COCCF)C(=O)N[C@H]1COc2cccc3c2N(C1=O)[C@H](C(=O)NCc1c[nH]nn1)C3 [Compound C099, (1S,8S)-8-{(2S,3S)-2-[2-(2-Fluoro-ethoxy)-acetylamino]-3-methyl-pentanoylamino}-9-oxo-1,2,8,9-tetrahydro-7H-6-oxa-9a-aza-benzo[cd]azulene-1-carboxylic acid (1H-[1,2,3]triazol-4-ylmethyl)-amide]	*** (the symbol “***” indicates a remaining percentage of 71-100%)	–	–
1 to 300	1 to 300	CC(C)[C@H](NC(=O)COCCF)C(=O)N[C@H]1COc2cccc3c2N(C1=O)[C@H](C(=O)NCc1c[nH]nn1)C3 [Compound C103, (1S,8S)-8-{(S)-2-[2-(2-Fluoro-ethoxy)-acetylamino]-3-methyl-butyrylamino}-9-oxo-1,2,8,9-tetrahydro-7H-6-oxa-9a-aza-benzo[cd]azulene-1-carboxylic acid (1H-[1,2,3]triazol-4-ylmethyl)-amide]	*** (the symbol “***” indicates a remaining percentage of 71-100%)	–	–
